Among the data in patent US10028942B2 (priority 2013, dated 2018) are Ki values, retold here.

The target of the test is T1, DLK (Homo sapiens, UniProt Q12852).
T1 sequence (Q12852 1-520): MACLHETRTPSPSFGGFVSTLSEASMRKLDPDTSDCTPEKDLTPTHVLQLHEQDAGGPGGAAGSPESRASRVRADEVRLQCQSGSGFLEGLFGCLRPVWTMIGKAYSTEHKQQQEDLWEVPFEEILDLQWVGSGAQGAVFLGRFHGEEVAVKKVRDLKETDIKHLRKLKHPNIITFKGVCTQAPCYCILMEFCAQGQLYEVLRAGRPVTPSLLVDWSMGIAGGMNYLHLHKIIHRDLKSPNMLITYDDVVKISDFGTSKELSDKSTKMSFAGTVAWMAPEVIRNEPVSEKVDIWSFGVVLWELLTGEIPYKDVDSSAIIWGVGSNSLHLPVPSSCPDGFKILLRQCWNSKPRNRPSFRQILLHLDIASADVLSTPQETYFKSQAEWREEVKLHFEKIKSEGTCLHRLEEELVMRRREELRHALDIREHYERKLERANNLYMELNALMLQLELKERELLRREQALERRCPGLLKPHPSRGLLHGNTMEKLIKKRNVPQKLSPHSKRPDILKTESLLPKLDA
The following applies: read-out: DLK (Ki) μM; TR-FRET; 5 nM GST-tagged DLK (catalytic domain aa 1-520), 40 nM HIS-MKK4 K131M substrate, 30 μM ATP, 60 minutes.

A word on the Ki: it is a dissociation constant, usually derived from enzyme kinetics or from competition with a known ligand. Take `CC(C)n1nc(-c2cnc(N)c(C#N)c2)cc1C1CCN(C2COC2)CC1` [Compound 92, 2-amino-5-(1-isopropyl-5-(1-(oxetan-3-yl)piperidin-4-yl)-1H-pyrazol-3-yl)nicotinonitrile]: the Ki came to 0.94 µM.

For the molecule `N#Cc1cc(-c2cc(C3CCN(C4COC4)CC3)n(C3CCCC3)n2)cnc1N` [Compound 93, 2-amino-5-(1-cyclopentyl-5-(1-(oxetan-an-3-yl)piperidin-4-yl)-1H-pyrazol-3-yl)nicotinonitrile], the Ki is 0.17 µM.

Take `CC(C)n1nc(-c2cnc3c(c2)C(C)(C)CN3)cc1C1CCN(C2COC2)CC1` [Compound 95, 5-(1-isopropyl-5-(1-(oxetan-3-yl)piperidin-4-yl)-1H-pyrazol-3-yl)-3,3-dimethyl-2,3-dihydro-1H-pyrrolo[2,3-b]pyridine]: the Ki turned out to be 1.2 µM.

For `CC(C)n1nc(-c2cnc(N)c(C3CC3)c2)cc1C1CCN(C2COC2)CC1` [Compound 98, 3-cyclopropyl-5-(1-isopropyl-5-(1-(oxe-tan-3-yl)piperidin-4-yl)-1H-pyra-zol-3-yl)pyridin-2-amine], the Ki came to 0.36 µM.

On to `CC(C)n1nc(-c2cnc(N)c(OC(F)F)c2)cc1C1CCN(C2COC2)CC1` [Compound 99, 3-(difluoromethoxy)-5-(1-isopropyl-5-(1-(oxetan-3-yl)piperidin-4-yl)-1H-pyrazol-3-yl)pyridin-2-amine], for which the inhibition constant Ki came out at 0.069 µM.

On to `CC(C)n1nc(-c2cnc3[nH]cc(C(F)(F)F)c3c2)cc1C1CCN(C2CCC2)CC1` [Compound 101, 5-(5-(1-cyclobutylpiperidin-4-yl)-1-iso-propyl-1H-pyrazol-3-yl)-3-(trifluoro-methyl)-1H-pyrrolo[2,3-b]pyridine], for which the Ki was 0.001 µM.

Consider `CC(C)n1nc(-c2cnc(N)c(C(F)(F)F)c2)cc1C1CCN(C2CCC2)CC1` [Compound 102, 5-(5-(1-cyclobutylpiperidin-4-yl)-1-isopropyl-1H-pyrazol-3-yl)-3-(trifluoromethyl)pyridin-2-amine], for which the inhibition constant Ki amounted to 0.034 µM.

On to `Nc1ncc(-c2cc([C@H]3[C@@H]4COC[C@@H]43)n(C3CCCC3)n2)cc1Cl` [Compound 105, 5-(5-((1R,5S,6s)-3-oxabicyclo[3.1.0]hexan-6-yl)-1-cyclopentyl-1H-pyra-zol-3-yl)-3-chloropyridin-2-amine], for which the Ki came out at 0.096 µM.

Take `Nc1ncc(-c2cc([C@H]3[C@@H]4CNC[C@@H]43)n(CC(F)(F)F)n2)cc1C(F)(F)F` [Compound 107, 5-(5-((1R,5S,6r)-3-azabicyclo[3.1.0]hexan-6-yl)-1-(2,2,2-trifluoroethyl)-1H-pyrazol-3-yl)-3-(trifluoromethyl) pyridin-2-amine]: the Ki is 0.0024 µM.

In the case of `CC(C)n1nc(-c2cnc(N)c(C(F)(F)F)c2)cc1[C@H]1[C@@H]2CN(S(C)(=O)=O)C[C@@H]21` [Compound 108, 5-(1-isopropyl-5-((1R,5S,6r)-3-(meth-ylsulfonyl)-3-azabicyclo[3.1.0]hex-an-6-yl)-1H-pyrazol-3-yl)-3-(trifluoro-methyl)pyridin-2-amine], the inhibitory constant (Ki) was determined as 0.0049 µM.

With `CC(C)n1nc(-c2cnc(N)c(C(F)(F)F)c2)cc1[C@H]1[C@@H]2CN(CC(F)F)C[C@@H]21` [Compound 109, 5-(5-((1R,5S,6r)-3-(2,2-difluoroethyl)-3-azabicyclo[3.1.0]hexan-6-yl)-1-isopropyl-1H-pyrazol-3-yl)-3-(trifluoro-methyl)pyridin-2-amine], the Ki was 0.001 µM.

As to `CC(C)n1nc(-c2cnc(N)c(OC(F)F)c2)cc1[C@H]1[C@@H]2CN(CC(F)(F)F)C[C@@H]21` [Compound 110, 3-(difluoromethoxy)-5-(1-isopropyl-5-((1R,5S,6r)-3-(2,2,2-trifluoroethyl)-3-azabicyclo[3.1.0]hexan-6-yl)-1H-pyrazol-3-yl)pyridin-2-amine], the Ki was 0.0045 µM.

As for `Nc1ncc(-c2cc([C@H]3[C@@H]4CN(CC(F)(F)F)C[C@@H]43)n(C3COC3)n2)cc1Cl` [Compound 111, 3-chloro-5-(1-(oxetan-3-yl)-5-((1R,5S, 6r)-3-(2,2,2-trifluoroethyl)-3-azabi-cyclo[3.1.0]hexan-6-yl)-1H-pyrazol-3-yl)pyridin-2-amine], the inhibition constant Ki turned out to be 0.18 µM.

For the molecule `N#Cc1cc(-c2cc([C@H]3[C@@H]4CN(CC(F)(F)F)C[C@@H]43)n(CC3CC3)n2)cnc1N` [Compound 113, 2-amino-5-(1-(cyclopropylmethyl)-5-((1R,5S,6r)-3-(2,2,2-trifluoroethyl)-3-azabicyclo[3.1.0]hexan-6-yl)-1H-pyrazol-3-yl)nicotinonitrile], the Ki is 0.064 µM.

On to `CC(C)n1nc(-c2cnc(N)c3cn[nH]c23)cc1[C@H]1[C@@H]2CN(CC(F)(F)F)C[C@@H]21` [Compound 114, 7-(1-isopropyl-5-((1R,5S,6r)-3-(2,2,2-trifluoroethyl)-3-azabicyclo[3.1.0]hexan-6-yl)-1H-pyrazol-3-yl)-1H-py-razolo[4,3-c]pyridin-4-amine], for which the Ki came out at 0.96 µM.

As to `CC(=O)N1C[C@@H]2[C@H](C1)[C@H]2c1cc(-c2cnc(N)c(C(F)(F)F)c2)nn1C(C)C` [Compound 115, 1-((1R,5S,6r)-6-(3-(6-amino-5-(trifluoro-methyl)pyridin-3-yl)-1-isopropyl-1H-pyrazol-5-yl)-3-azabicyclo[3.1.0]hexan-3-yl)ethanone], the inhibition constant (Ki) was determined as 0.0056 µM.

As to `COCCN1C[C@@H]2[C@H](C1)[C@H]2c1cc(-c2cnc(N)c(C(F)(F)F)c2)nn1C(C)C` [Compound 117, 5-(1-isopropyl-5-((1R,5 S,6r)-3-(2-methoxyethyl)-3-azabicyclo[3.1.0]hexan-6-yl)-1H-pyrazol-3-yl)-3-(trifluoromethyl)pyridin-2-amine], the Ki worked out at 0.0094 µM.

With `COCCN1C[C@@H]2[C@H](C1)[C@H]2c1cc(-c2cnc(N)c(Cl)c2)nn1C(C)C` [Compound 118, 3-chloro-5-(1-isopropyl-5-((1R,5S,6r)-3-(2-methoxyethyl)-3-azabicyclo[3.1.0]hexan-6-yl)-1H-pyrazol-3-yl) pyridin-2-amine], the Ki came out at 0.034 µM.

On to `COCCN1C[C@@H]2[C@H](C1)[C@H]2c1cc(-c2cnc(N)c(OC(F)F)c2)nn1C(C)C` [Compound 119, 3-(difluoromethoxy)-5-(1-isopropyl-5-((1R,5S,6r)-3-(2-methoxyethyl)-3-azabicyclo[3.1.0]hexan-6-yl)-1H-py-razol-3-yl)pyridin-2-amine], for which the inhibitory constant (Ki) amounted to 0.0055 µM.

`COCCN1C[C@@H]2[C@H](C1)[C@H]2c1cc(-c2cnc(N)c(Cl)c2)nn1CC(C)C` [Compound 120, 3-chloro-5-(1-isobutyl-5-((1R,5S,6r)-3-(2-methoxyethyl)-3-azabicyclo[3.1.0]hexan-6-yl)-1H-pyrazol-3-yl)pyri-din-2-amine]: the inhibitory constant (Ki) turned out to be 0.03 µM.

Take `COCCN1C[C@@H]2[C@H](C1)[C@H]2c1cc(-c2cnc(N)c(Cl)c2)nn1CC1CC1(F)F` (stereo partly drawn) [Compound 121, 3-chloro-5-(1-((2,2-difluorocyclopro-pyl)methyl)-5-((1R,5S,6r)-3-(2-meth-oxyethyl)-3-azabicyclo[3.1.0]hexan-6-yl)-1H-pyrazol-3-yl)pyridin-2-amine]: the inhibition constant (Ki) came out at 0.09 µM.

As for `COCCN1C[C@@H]2[C@H](C1)[C@H]2c1cc(-c2cnc(N)c(C(F)(F)F)c2)nn1CC1CC1` [Compound 122, 5-(1-(cyclopropylmethyl)-5-((1R,5S, 6r)-3-(2-methoxyethyl)-3-azabicyclo [3.1.0]hexan-6-yl)-1H-pyrazol-3-yl)-3-(trifluoromethyl)pyridin-2-amine], the inhibition constant (Ki) amounted to 0.0079 µM.
